Earlier results in US9775802B2, “Method for preparing suspensions of low-solubility materials” (Bausch & Lomb Incorporated, priority 2009, dated 2017).
Counter-ions that a name gives are not always drawn. Like-named read-outs stand apart in the source and are kept apart here. Blank lines part the entries; values can stand above or below the molecule they belong to.

Conditions: for solubility in water, estimated: 'estimated to be'

solubility in water (37° C.): about 39 mg/mL
Compound: CC[C@H]1OC(=O)[C@H](C)[C@@H](O[C@H]2C[C@@](C)(OC)[C@@H](O)[C@H](C)O2)[C@H](C)[C@@H](O[C@@H]2O[C@H](C)C[C@H](N(C)C)[C@H]2O)[C@](C)(O)C[C@@H](C)CN(C)[C@H](C)[C@@H](O)[C@]1(C)O [azithromycin dihydrate]

solubility in water (temperature not stated): about 0.5 mg/mL
Compound: CC[C@H]1OC(=O)[C@H](C)[C@@H](O[C@H]2C[C@@](C)(OC)[C@@H](O)[C@H](C)O2)[C@H](C)[C@@H](O[C@@H]2O[C@H](C)C[C@H](N(C)C)[C@H]2O)[C@](C)(O)C[C@@H](C)CN(C)[C@H](C)[C@@H](O)[C@]1(C)O [azithromycin]

solubility in water (in words): soluble in water
Compound: C[C@@H]1C[C@H]2[C@@H]3CCC4=CC(=O)C=C[C@]4(C)[C@@]3(F)[C@@H](O)C[C@]2(C)[C@@]1(O)C(=O)COP(=O)(O)O [dexamethasone phosphate disodium salt]

solubility in water (25° C.): about 0.1 mg/mL
Compound: C[C@@H]1C[C@H]2[C@@H]3CCC4=CC(=O)C=C[C@]4(C)[C@@]3(F)[C@@H](O)C[C@]2(C)[C@@]1(O)C(=O)CO [dexamethasone]

solubility in water (temperature not stated): about 50 mg/mL
Compound: O=C(O)Cc1ccccc1Nc1c(Cl)cccc1Cl [diclofenac sodium salt]

solubility in water, estimated: about 0.002 mg/mL
Compound: O=C(O)Cc1ccccc1Nc1c(Cl)cccc1Cl [diclofenac]

solubility in water, estimated: about 0.17 mg/mL
Compound: COc1c(N2C[C@@H]3CCCN[C@@H]3C2)c(F)cc2c(=O)c(C(=O)O)cn(C3CC3)c12 [moxifloxacin]
